The target in the experiment is T1, human Nav1.7 (Homo sapiens, UniProt Q15858).
T1 construct: expressed in transfected cells; host or cells: HEK 293T
Put plainly: Patch clamp recording of heterologously expressed human Nav1.7 currents in HEK 293T cells. The class given is cell-based. The following applies: for IC50: 50-ms depolarizing pulse to 0 mV, HEK 293T cells, mean±SEM (n=4-10), read-out: IC50 for human Nav1.7 inhibition. How it is done:
FIG. 1. A) Families of human Nav1.7 current traces in the presence of increasing concentrations of mepyramine (0-100 μM). The current was elicited by a 50-ms depolarizing pulse to 0 mV from a holding potential of −100 mV (top) or −60 mV (bottom). Voltage steps were applied every 15 s. B) Cumulative dose-response curves for human Nav1.7 inhibition by mepyramine derived from experiments as in A. The IC50 values were 4±0.1 μM at Vh of −60 mV (empty circles) or 15.3±0.1 μM at Vh of −100 mV (filled circles). Each data point is the mean±SEM (n=4-10). C) Representative I-V curve family of hNav1.7 currents recorded using a protocol (inset) where cells were depolarized to a variety of potentials from a holding potential of −100 mV. D) Normalized human Nav1.7 activation curves obtained from experiments as in C. Curves were fit by using a first-order Boltzmann relations (n=16).
Human embryonic kidney (HEK) 293T cells were cultured as described in Hao et al. (Neuron, 2013, 77:899-914) and were recorded 48 hours after co-transfection with human Nav1.7 (hNav1.7) and green fluorescent protein clones. Patch clamp recordings were performed using borosilicate electrodes (Harvard Apparatus) having a resistance of […] when filled with the intracellular solution. Recordings were made at room temperature (20-24° C.) using an Axopatch 200B amplifier (Axon Instruments), filtered at 1 kHz, and digitally sampled at 5-20 kHz. Data acquisition was performed with pClamp 10.2, and data were analyzed using Prism 4 software.
For voltage clamp protocols, currents were leak-subtracted by using a P/6 protocol. Voltage errors were minimized using 75-80% series resistance compensation. Intracellular pipette solution consisted of (mM): 130 CsCl, 10 Hepes, 8 NaCl, 0.4 NaGTP, 4 MgATP, 1 MgCl2, 1 CaCl2 and 10 EGTA (adjusted to pH7.3 with CsOH, ˜300 mOsm/l). […] Stock solution of Mepyramine […] was dissolved in distilled water. Cells were perfused with bath solution at flow rate of 5 mL/min.
The dose-response curve for mepyramine was fitted with the Hill equation: I/Imax=[M]^nH/(IC50^nH+[M]^nH), where IC50 is the half-maximal inhibitory concentration and nH the Hill coefficient. The activation curve (G-V) was fitted using Boltzmann function: G/Gmax=1/(1+exp^[(V1/2−V)/k]) where G/Gmax is the normalized conductance, V1/2 is the voltage of half-maximum conductance activation, and k is the steepness factor. Data were presented as mean±SEM.

The mark [1] stands for this setting: HEK cells, in the absence of histamine and in the absence of H1 receptors.

The values that follow come from US20230321059A1, “MEPYRAMINE FOR USE IN THE TOPICAL TREATMENT OF NEUROPATHIC PAIN” (Assistance Publique - Hopitaux de Paris, priority 2020, published 2023).

Where two headings read alike, the source gives them in different places.

T1 sequence (Q15858 whole entry): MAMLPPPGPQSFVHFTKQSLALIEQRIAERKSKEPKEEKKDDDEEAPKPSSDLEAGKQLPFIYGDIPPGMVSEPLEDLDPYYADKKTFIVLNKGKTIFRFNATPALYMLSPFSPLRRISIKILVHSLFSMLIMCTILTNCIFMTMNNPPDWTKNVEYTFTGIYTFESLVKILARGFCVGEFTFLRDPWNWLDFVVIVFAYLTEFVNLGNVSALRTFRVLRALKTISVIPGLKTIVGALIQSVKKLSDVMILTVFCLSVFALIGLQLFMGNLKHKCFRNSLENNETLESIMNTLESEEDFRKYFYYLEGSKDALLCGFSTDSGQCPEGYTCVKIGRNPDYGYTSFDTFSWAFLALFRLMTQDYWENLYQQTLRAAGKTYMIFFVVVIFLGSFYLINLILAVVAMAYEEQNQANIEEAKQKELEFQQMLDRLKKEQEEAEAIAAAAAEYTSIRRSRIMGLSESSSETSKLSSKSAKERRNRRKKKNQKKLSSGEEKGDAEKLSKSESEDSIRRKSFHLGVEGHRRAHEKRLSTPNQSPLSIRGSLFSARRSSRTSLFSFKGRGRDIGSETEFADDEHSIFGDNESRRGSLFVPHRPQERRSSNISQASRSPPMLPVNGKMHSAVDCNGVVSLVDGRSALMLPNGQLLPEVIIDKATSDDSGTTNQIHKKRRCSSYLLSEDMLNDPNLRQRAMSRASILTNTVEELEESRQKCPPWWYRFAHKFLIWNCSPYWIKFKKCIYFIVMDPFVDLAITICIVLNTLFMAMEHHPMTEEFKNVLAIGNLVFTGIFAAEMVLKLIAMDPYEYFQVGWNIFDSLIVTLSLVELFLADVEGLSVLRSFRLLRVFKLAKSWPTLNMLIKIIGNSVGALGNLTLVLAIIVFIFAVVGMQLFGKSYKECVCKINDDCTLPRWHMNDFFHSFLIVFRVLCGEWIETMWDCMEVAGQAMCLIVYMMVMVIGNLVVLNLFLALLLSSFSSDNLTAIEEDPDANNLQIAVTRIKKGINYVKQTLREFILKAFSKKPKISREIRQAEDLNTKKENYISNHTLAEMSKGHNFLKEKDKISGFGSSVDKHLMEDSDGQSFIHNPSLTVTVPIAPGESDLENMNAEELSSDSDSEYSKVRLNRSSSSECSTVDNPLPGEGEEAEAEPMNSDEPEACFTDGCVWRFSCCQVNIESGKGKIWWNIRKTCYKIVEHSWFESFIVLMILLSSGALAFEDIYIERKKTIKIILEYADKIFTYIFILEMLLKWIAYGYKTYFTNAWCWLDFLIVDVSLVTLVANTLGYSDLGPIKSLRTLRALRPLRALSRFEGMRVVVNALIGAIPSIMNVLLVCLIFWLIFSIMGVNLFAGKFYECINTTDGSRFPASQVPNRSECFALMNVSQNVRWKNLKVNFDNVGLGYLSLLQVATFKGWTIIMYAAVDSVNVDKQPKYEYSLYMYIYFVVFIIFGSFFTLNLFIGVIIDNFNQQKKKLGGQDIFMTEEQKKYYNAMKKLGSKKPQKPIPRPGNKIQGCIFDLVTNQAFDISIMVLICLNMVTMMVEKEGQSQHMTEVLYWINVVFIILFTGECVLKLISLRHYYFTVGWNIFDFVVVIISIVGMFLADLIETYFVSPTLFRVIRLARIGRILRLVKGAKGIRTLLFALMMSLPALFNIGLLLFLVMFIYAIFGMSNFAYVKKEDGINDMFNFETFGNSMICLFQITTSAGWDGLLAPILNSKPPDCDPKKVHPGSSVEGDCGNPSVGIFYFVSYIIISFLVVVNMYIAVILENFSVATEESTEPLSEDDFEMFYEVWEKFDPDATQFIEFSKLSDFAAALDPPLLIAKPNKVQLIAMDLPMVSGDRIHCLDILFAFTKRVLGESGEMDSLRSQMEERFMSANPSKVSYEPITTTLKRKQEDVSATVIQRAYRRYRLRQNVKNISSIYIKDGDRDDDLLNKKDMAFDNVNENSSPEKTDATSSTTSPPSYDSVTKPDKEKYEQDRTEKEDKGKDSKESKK

On to `COc1ccc(CN(CCN(C)C)c2ccccn2)cc1` [mepyramine, N,N-dimethyl-N′-(4-methoxybenzyl)-N′-(2-pyridyl) ethylenediamine], for which, under setting [1], the “Dependence of the effect on H1 receptors” value was “independent of the H1 receptors” and the “Inhibition of heterologously expressed human Nav1.7 channels” value is “inhibits”. Besides, for the setting “Vh of −60 mV”, the IC50 came out at 4 ± 0.1 µM. For the same compound, the IC50 (Vh of −100 mV) came out at 15.3 ± 0.1 µM.
